Results from US8129527B2, “Analogs of dehydrophenylahistins and their therapeutic use” (Nereus Pharmacuticals, Inc., priority 2006, dated 2012).
Like-named read-outs stand apart in the source and are kept apart here.

Columns and labels:
Lyn (mouse) = Lyn (mouse) (Mus musculus, UniProt P25911); settings: ATP 10 μM
JNK3 (rat) = JNK3 (rat) (Rattus norvegicus, UniProt P49187); settings: ATP 10 μM
HT-29 human colon cells = test: Tumor cytotoxicity assay, resazurin fluorescence, 48 h (Example 6); assay type: cell-based; settings: Homo sapiens
[1] = tested on: PC-3 prostatic adenocarcinoma cells; test: as above; assay type: cell-based, human; settings: read-out: EC50 (nM) PC-3
Experimental: 10× concentrated serial dilutions of the two compounds were prepared in appropriate culture medium for final concentrations ranging from 2.0×10^−5 M to 2.0×10^−10 M. Ten μl volumes of the 10× serial dilutions were added to the test wells in triplicate and the plates returned to the incubator for 48 hours.
Following 48 hours of drug exposure 10 μl of 0.2 mg/ml resazurin (obtained from Sigma-Aldrich Chemical Co.) in Mg^2+, Ca^2+ free PBS was added to each well and the plates were returned to the incubator for 3-4 hours. […] Resazurin dye without cells was used to determine the background, which was subtracted from the data for all experimental wells. The data were analyzed using Prism software (GraphPad Software).
PC-3, a human prostate adenocarcinoma, was maintained in F12K complete medium (F12K medium supplemented with 10% FBS; 2 mM Glutamine; 1% HEPES; and Pen/Strep at 100 IU/ml and 100 µg/ml, respectively).

[2] = tested on: MCF-7 (Taxol Sensitive) human breast carcinoma; test: Drug resistant cell line pair, cytotoxicity (Example 10B); assay type: cell-based; settings: Homo sapiens, MCF7/Taxol, read-out: MCF-7 Sensitive IC50 nM
Source text: (§1) 3). Human Breast Carcinoma Cell Line Pair: MCF-7 (Taxol Sensitive) and MCF-7/ADR (Taxol Resistant)

[3] = tested on: MCF-7/ADR (Taxol Resistant) human breast carcinoma; test: as above; assay type: cell-based; settings: Homo sapiens, NCI/ADR-RES, read-out: MCF-7/ADR Resistant IC 50 nM
Source text: as §1

CDK1/Cyclin B (human) = CDK1/Cyclin B (human) (Homo sapiens, UniProt P06493); test: biochemical
CDK1/Cyclin B (human), sequence (P06493 whole entry): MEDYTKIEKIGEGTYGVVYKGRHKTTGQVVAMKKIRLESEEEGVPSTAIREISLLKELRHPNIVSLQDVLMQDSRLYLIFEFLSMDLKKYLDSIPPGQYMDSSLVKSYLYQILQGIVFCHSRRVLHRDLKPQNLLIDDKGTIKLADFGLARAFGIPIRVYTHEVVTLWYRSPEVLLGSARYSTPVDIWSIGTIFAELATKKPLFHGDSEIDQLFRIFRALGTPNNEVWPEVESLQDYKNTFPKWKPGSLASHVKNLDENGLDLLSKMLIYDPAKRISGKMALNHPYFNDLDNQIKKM
CDK1/Cyclin B (human), sequence (P14635 whole entry partner): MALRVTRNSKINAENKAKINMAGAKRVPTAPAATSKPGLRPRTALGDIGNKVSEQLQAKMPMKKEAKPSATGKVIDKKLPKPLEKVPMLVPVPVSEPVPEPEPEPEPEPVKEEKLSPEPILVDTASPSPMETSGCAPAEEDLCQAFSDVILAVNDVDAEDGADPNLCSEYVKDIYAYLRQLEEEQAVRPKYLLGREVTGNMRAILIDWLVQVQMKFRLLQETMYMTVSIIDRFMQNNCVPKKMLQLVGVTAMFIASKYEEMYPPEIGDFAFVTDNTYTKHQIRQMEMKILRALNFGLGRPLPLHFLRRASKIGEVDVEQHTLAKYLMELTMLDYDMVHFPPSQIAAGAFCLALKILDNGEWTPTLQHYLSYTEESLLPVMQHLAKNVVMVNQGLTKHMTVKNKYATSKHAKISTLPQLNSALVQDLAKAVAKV

HT-29 human colon tumor = test: HT-29 Human Colon Tumor Xenograft Model; assay type: in vivo
Summary of the method: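 Nude mice bearing s.c. trocar-implanted HT-29 fragments were grouped at 5 mm×5 mm tumours and dosed i.p.; in combinations, reference chemotherapy was given 15-30 min before compound. Caliper measurements twice weekly were converted to tumour weight as (W^2×L)/2, with study end when control tumours averaged 1000 mg.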

Aspergillus fumigatus = test: Antifungal susceptibility testing, broth dilution (MIC/MFC); assay type: cell-based
Summary of the method: (§2)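 Tested against two isolates per species (one for C. glabrata). After MIC, fungicidal concentration determined by plating 0.1 μl from MIC and each higher concentration.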

Candida glabrata = test: as above; assay type: cell-based; settings: Nakaseomyces glabratus
Summary of the method: as §2

Candida albicans = test: as above; assay type: cell-based
Summary of the method: as §2

Trichophyton rubrum = test: as above; assay type: cell-based; settings: Trichophyton species
Summary of the method: as §2

[4] = tested on: HL-60 (Mitoxantrone-Sensitive) human acute promyelocytic leukemia; test: Drug resistant cell line pair, cytotoxicity (Example 10B); assay type: cell-based; settings: HL-60 Sensitive
Source text: 2) Human Acute Promyelocytic Leukemia Cell Line Pair: HL-60 (Mitoxantrone-Sensitive) and HL-60/MX-2 (Mitoxantrone-Resistant)

[5] = tested on: P388 murine leukemia cells; test: Cytotoxic effect in P388 cells; assay type: cell-based
Source text: The cytotoxic effects of phenylahistin, dehydrophenylahistin and various derivatives of dehydrophenylahistin were examined in P388 murine leukemia cells, HT-29 human colon cells, and PC-3 prostatic adenocarcinoma cells.

[6] = tested on: DU-145 human prostate tumor; test: DU-145 Human Prostate Tumor Xenograft Model; assay type: in vivo, nude mice; settings: KPU-2 plus taxotere, treatment Days 20-27
Experimental: Animals used were (exceptions are indicated for individual studies): female nude mice (nu/nu) between 5 and 6 weeks of age (˜20 g, Harlan); group size was 9-10 mice per group unless otherwise indicated.
Selected novel compounds were administered as monotherapy via the intraperitoneal (i.p.) route at the doses indicated for the individual study; for the combination studies the selected reference chemotherapy agents were injected 15-30 min prior to the compound.
Saline dilutions are used to achieve the injection concentrations used for the reference compounds.
When the tumors reached 5 mm×5 mm (at about 13-17 days) the animals were matched into treatment and control groups.
In this model unless otherwise noted for the individual study, test compounds were administered via the intraperitoneal route on Days 1, 3, 5, 8 and 11 (q3dx5); taxotere was administered intravenously on Days 1, 3 and 5 (q2dx3).

PARP in Jurkat cells = test: Cleavage of poly(ADP-ribose)polymerase (PARP), western blotting; assay type: cell-based, human; settings: 100 nM, 10 hours after exposure
Source text: In order to assess the ability of these compounds to induce apoptosis in Jurkat cells, cleavage of poly(ADP-ribose)polymerase (PARP) was monitored. […] The cleavage of PARP generates a stable 89 kDa product, and this process can be easily monitored by western blotting.

HT29 (human colon tumor) = test: Tumor panel screen cytotoxicity (Example 10A); assay type: cell-based
Source text: (§3) Cells were maintained at subconfluent densities in their respective culture media.

[7] = tested on: CCD-27sk (normal human fibroblast); test: Tumor panel screen cytotoxicity (Example 10A); assay type: cell-based; settings: CCD-27sk Fibroblast
Source text: as §3

[8] = tested on: NCI-H292 (human non-small cell lung tumor); test: Tumor panel screen cytotoxicity (Example 10A); assay type: cell-based; settings: maximum cytotoxic effect
Source text: as §3

[9] = tested on: MDA-MB-231 (human breast tumor); test: Tumor panel screen cytotoxicity (Example 10A); assay type: cell-based; settings: MDA-MB-231 Breast
Source text: as §3

[10] = tested on: B16-F10 (murine melanoma); test: Tumor panel screen cytotoxicity (Example 10A); assay type: cell-based
Source text: as §3

JNK3 (rat), sequence (P49187 whole entry): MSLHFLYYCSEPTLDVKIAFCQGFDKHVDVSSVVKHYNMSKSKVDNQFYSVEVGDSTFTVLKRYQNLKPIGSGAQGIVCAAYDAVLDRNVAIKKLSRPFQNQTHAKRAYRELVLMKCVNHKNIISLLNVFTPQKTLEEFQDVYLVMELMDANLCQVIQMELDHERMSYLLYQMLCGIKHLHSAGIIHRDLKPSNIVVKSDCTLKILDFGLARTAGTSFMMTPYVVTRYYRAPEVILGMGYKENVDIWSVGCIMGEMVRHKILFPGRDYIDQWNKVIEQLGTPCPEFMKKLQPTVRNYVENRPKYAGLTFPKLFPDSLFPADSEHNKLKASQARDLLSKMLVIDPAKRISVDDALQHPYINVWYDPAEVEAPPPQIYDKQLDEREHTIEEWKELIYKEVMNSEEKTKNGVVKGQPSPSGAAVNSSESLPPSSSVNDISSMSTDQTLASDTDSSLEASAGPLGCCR
Lyn (mouse), sequence (P25911 whole entry): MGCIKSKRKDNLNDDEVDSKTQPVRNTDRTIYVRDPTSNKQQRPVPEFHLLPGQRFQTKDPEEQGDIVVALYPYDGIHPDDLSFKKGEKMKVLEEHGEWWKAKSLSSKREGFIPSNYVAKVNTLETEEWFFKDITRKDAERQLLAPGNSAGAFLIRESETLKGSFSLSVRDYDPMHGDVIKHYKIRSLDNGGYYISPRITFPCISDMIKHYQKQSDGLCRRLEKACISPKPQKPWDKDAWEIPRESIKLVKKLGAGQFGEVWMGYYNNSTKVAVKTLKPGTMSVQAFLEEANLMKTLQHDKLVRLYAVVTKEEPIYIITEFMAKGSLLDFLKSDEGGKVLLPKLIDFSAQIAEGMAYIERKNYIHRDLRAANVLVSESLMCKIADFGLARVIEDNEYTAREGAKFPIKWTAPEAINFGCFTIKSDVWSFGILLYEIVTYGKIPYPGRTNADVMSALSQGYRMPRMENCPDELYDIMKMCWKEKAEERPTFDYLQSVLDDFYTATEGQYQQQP

CC(C)(C)c1[nH]cnc1/C=c1\[nH]c(=O)/c(=C/c2ccccc2)[nH]c1=O [KPU-2, tBu-dehydro-PLH]
IC50 (Lyn (mouse)): 11100 nM
IC50 (JNK3 (rat)): 6800 nM
EC50 (HT-29 human colon cells; HT-29, Table 6, proliferation of HT-29 cells): 13 nM
EC50 (HT-29 human colon cells; HT-29, Table 9, summary of modification at the o-position, HT-29): 48 nM
EC50 (HT-29 human colon cells; HT-29, Table 10, summary of modification at the m-position, HT-29): 48 nM
EC50 (HT-29 human colon cells; HT-29, read-out: EC50 (nM) HT-29, Table 2): 13 nM
EC50 (HT-29 human colon cells; HT-29, read-out: EC50 (nM) HT-29, Table 3): 13 nM
EC50 (HT-29 human colon cells; HT-29, Table 5, synthetic potent dehydroPLH derivatives): 13 nM
EC50 ([1]; Table 2): 1 nM
EC50 ([1]; Table 3): 1 nM
IC50 [2]: 39.6 nM
IC50 [3]: 27.4 nM
IC50 (CDK1/Cyclin B (human)): 10100 nM
Comments (combination with CPT-11) (HT-29 human colon tumor; NPI compound + CPT-11 100 ip qwx3, study and dose as in the line): Synergy
NPI-Compound Result TGI % (HT-29 human colon tumor; Study 2139, monotherapy 7.5 mg/kg ip q3dx5): No Effect
NPI-Compound Result TGI % (HT-29 human colon tumor; Study 2164, monotherapy 7.5 mg/kg ip q3dx5): No Effect
NPI-Compound Result TGI % (HT-29 human colon tumor; Study 2164, monotherapy 7.5 mg/kg ip qdx5): No Effect
NPI-Compound Result TGI % (HT-29 human colon tumor; Study 2288, monotherapy 10→7.5 mg/kg ip q3dx5): No Effect
Exceed NCI Criterion (TGI ≧ 58%) (HT-29 human colon tumor; which treatment group exceeds the criterion, NPI compound, CPT-11 100 ip qwx3 or combination, study and dose as in the line): Combination
MIC (Aspergillus fumigatus; A. fumigatus isolate #2): >16 µg/mL
MIC (Aspergillus fumigatus; Aspergillus fumigatus): > 16 µg/mL
MIC (Candida glabrata): > 32 µg/mL
MIC (Candida albicans; C. albicans 10231): >32 µg/mL
MIC (Candida albicans; Candida albicans): > 32 µg/mL
antifungal potency compared with griseofulvin (Trichophyton rubrum): equivalent in potency or in some cases more potent than griseofulvin
IC50 [4]: 6.4 nM
IC50 ([5]; Mus musculus, P388, read-out: IC50 (nM) P-388): 31.8 ± 5 nM
cytotoxicity in P388 cells ([5]; in words): exhibited cytotoxicity in P388 cells
apparent TGI [6]: > 58%
cleavage of PARP (PARP in Jurkat cells): induced cleavage of PARP
% Cytotoxicity Mean (HT29 (human colon tumor); HT-29 Colon, maximum cytotoxic effect): 82.5%
IC50 (HT29 (human colon tumor); Homo sapiens, HT-29 Colon): 9.8 nM
potency on the HT-29 tumor cell line (HT29 (human colon tumor); in words): low nanomolar range
% Cytotoxicity Mean ([7]; maximum cytotoxic effect): 64.3%
IC50 ([7]; Homo sapiens): 9.2 nM
% Cytotoxicity Mean [8]: 70.5%
IC50 ([9]; Homo sapiens): 13.8 nM
% Cytotoxicity Mean ([9]; maximum cytotoxic effect): 56.7%
IC50 ([10]; Mus musculus): 37.1 nM
% Cytotoxicity Mean ([10]; maximum cytotoxic effect): 71.8%
